Here are results for 22 compounds from patent US8258159B2, “Inhibitors of the α2β1/GPIa-IIa integrin” (The Trustees Of The University Of Pennsylvania, priority 2005, dated 2012).

*1 amine or outer side, *2 acyl side, *3 side chain or, on linkers, in order; H or OH if unused. Where a SMILES comes first, the peptide text is derived from it. Side-chain parts run from the residue outwards. [ ]: non-standard residue; d: D form. The star is where a group is joined. Tos = Cc1ccc(S(=O)(=O)*)cc1; Dap = NC[C@H](N)C(=O)O; CO = O=C([*:1])[*:2]; NHBn = c1ccc(CN*)cc1; Bz = O=C(c1ccccc1)*

In general, IC50 refers to the midpoint of a concentration-inhibition curve. What is called inhibition is the percentage by which the read-out fell short of the control.

T4 sequence (P13612 34-1032): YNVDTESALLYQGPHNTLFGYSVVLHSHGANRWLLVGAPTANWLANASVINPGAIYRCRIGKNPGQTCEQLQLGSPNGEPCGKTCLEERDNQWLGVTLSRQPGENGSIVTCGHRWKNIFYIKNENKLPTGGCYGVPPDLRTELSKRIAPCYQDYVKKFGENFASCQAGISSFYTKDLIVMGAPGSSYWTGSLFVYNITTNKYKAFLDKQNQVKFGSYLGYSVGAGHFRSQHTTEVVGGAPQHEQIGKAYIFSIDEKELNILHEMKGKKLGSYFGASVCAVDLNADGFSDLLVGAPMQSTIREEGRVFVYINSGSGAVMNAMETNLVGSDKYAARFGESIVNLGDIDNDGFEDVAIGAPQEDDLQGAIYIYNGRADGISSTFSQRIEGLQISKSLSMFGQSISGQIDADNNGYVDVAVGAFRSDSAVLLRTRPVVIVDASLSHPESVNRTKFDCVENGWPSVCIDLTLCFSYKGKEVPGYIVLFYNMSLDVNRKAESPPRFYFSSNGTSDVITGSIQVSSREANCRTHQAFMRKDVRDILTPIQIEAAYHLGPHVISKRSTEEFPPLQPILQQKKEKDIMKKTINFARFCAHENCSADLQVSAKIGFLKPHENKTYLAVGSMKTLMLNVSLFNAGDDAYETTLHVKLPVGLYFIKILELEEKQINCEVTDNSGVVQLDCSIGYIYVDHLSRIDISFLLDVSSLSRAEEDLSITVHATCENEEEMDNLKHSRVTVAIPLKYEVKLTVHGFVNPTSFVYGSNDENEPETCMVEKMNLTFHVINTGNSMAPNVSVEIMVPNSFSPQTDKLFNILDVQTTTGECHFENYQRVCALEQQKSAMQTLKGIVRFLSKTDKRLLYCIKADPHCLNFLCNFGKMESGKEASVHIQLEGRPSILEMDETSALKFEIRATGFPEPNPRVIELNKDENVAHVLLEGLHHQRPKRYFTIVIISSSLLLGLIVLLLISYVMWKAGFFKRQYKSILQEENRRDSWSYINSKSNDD
T4 sequence (P05556 21-798): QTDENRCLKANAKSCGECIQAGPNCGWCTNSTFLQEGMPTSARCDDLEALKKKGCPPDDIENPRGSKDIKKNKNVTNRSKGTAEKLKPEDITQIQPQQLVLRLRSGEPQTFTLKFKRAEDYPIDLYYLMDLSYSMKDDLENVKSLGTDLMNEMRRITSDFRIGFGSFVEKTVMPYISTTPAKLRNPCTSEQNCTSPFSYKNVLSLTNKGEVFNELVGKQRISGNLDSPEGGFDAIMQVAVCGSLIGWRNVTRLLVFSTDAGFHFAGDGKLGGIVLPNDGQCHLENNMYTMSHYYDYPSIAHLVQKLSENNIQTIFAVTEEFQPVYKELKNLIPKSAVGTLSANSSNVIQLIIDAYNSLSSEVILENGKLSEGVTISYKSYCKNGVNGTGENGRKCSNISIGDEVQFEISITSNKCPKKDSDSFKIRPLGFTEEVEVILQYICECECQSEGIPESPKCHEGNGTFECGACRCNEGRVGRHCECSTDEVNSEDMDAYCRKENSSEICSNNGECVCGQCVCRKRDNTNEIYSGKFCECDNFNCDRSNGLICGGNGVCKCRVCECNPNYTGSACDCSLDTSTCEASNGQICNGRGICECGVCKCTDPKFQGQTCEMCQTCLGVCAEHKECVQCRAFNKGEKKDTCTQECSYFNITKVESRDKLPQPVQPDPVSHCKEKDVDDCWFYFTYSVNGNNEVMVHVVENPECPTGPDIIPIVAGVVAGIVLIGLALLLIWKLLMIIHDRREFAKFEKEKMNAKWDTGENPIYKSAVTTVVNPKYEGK

In one assay the target is T1, α2β1 integrin (Homo sapiens, UniProt P05556+P17301).
T1 construct: endogenous in cells; host or cells: gel-filtered human platelets of a single donor
T1 sequence (P17301 30-1181): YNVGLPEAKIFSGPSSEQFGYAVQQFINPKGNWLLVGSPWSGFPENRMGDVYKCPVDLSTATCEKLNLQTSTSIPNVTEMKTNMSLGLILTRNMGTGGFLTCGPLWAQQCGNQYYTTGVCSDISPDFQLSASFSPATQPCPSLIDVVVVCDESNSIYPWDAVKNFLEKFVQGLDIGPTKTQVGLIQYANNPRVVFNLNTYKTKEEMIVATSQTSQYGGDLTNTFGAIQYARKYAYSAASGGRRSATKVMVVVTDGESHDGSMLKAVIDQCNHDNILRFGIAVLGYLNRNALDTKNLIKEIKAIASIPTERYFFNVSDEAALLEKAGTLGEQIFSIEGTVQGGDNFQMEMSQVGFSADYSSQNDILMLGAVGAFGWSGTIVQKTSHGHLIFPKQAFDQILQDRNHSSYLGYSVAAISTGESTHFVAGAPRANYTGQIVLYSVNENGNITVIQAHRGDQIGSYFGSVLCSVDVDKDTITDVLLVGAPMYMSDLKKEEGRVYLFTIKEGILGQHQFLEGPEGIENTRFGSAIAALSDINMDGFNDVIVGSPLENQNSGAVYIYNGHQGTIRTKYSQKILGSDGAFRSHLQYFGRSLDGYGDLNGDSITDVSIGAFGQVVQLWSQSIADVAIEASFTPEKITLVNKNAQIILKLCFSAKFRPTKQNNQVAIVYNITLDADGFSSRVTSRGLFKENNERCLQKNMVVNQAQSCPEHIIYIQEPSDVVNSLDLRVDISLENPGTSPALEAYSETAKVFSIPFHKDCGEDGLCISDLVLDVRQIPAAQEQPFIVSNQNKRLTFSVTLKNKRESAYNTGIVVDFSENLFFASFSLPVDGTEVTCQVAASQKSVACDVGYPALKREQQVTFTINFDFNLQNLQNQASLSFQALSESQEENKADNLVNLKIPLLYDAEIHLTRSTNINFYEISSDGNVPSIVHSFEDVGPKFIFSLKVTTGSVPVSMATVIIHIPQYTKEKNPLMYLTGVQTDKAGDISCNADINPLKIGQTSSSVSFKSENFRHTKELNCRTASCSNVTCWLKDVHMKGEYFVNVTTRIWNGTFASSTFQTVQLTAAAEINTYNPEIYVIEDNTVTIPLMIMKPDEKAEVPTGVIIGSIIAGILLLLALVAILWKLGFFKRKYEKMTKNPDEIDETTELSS
T1 sequence (P05556 21-798): as the sequence (P05556 21-798) above
The assay can be described thus: Platelet adhesion assay (human platelet adhesion to type I collagen). Format: cell-based. The settings on record: human platelet adhesion to type I (soluble, monomeric) collagen, static conditions; single donor; read-out: IC50. The protocol: The inhibitory strength of the compounds of the present disclosure was analyzed as against platelet adhesion to type I collagen. Ninety-six well flat bottom microtiter plates (Immulon 2, Dynatech Laboratories, Chantilly, Va.) were coated with collagen, purified human fibrinogen, or bovine serum albumin, each dissolved in 50 mM NaHCO3 buffer, pH 8.0, containing 150 mM NaCl as previously described. See Bennett J S, Chan C, Vilaire G, Mousa S A, DeGrado W F. Agonist-Activated αvβ3 on Platelets and Lymphocytes Binds to the Matrix Protein Osteopontin. J Biol Chem. 272, 8137-814) (1997). Unoccupied protein binding sites on the wells were blocked with 5 mg/ml bovine serum albumin dissolved in the same buffer. Human platelets were isolated from blood anticoagulated with 0.1 volume 3.8% sodium citrate by gel-filtration using a 4 mM HEPES buffer, pH 7.4, containing 135 mM NaCl, 2.7 mM KCl, 5.6 mM glucose, 3.3 mM NaH2PO4, 0.35 mg/ml bovine serum albumin and various concentrations of CaCl2 or MgCl2 according to the experiment. One hundred μl aliquots of the gel-filtered platelet suspension containing 1-2×10^8 platelets were added to the protein-coated wells in the absence or presence of a platelet agonist. Following an incubation for 30 min at 37° C. without agitation, the plates were washed 4 times with the Tris-buffered NaCl, containing 2 mM MgCl2, pH 7.4, and the number of adherent platelets measured using the colorimetric assay reported by Bellavite P, Andrioli G, Guzzo P, et al. A colorimetric method for the measurement of platelet adhesion in microtiter plates. Anal Biochem. 216, 444-450 (1994). Briefly, 150 μl of a 0.1 M citrate buffer, pH 5.4, containing 5 mM p-nitrophenyl phosphate and 0.1% Triton X-100 was added to the wells after washing. After an incubation for 60 min at room temperature in the absence of ambient light, color was developed by the addition of 100 μl of 2N NaOH and, using EL800 Universal Microplate Reader (Bio-Tek Instruments, Inc., Winooski, Vt.), read in microtiter plate reader at 405 nm.
The potencies of the compounds of the present disclosure were determined by testing the ability of a range of concentrations of each compound to inhibit human platelet adhesion to soluble collagen under static conditions. Owing to the fact that soluble collagen is a specific ligand for α2β1 integrin, this is an accepted method of assessing α2β1 inhibition on platelets.
IC50 values were determined by using the platelets of a single donor. In cases where multiple assays were performed, the reported results reflect the average IC50 value derived from the separate assays.
In the case of `O=C(NCc1ccccc1)NC[C@H](NC(=O)[C@@H]1CCCN1C(=O)c1ccccc1)C(=O)O` [Compound 26, 2-[(1-Benzoyl-pyrrolidine-2-carbonyl)-amino]-3-(3-benzyl-ureido)-propionic acid] (Bz-Pro-[Dap]([CO-NHBn])-OH), the IC50 was determined as 1000 µM. Still for that read-out and setting: for `Cc1ccc(S(=O)(=O)N2CCC[C@H]2C(=O)N[C@@H](CNC(=O)NCc2ccccc2)C(=O)O)cc1` [Compound 27, 3-(3-Benzyl-ureido)-2-{[1-(toluene-4-sulfonyl)-pyrrolidine-2-carbonyl]-amino}-propionic acid] (Tos-Pro-[Dap]([CO-NHBn])-OH) the value was 0.036 µM; for `O=C(NCc1ccccc1)NC[C@H](NC(=O)[C@@H]1CCCN1S(=O)(=O)c1cccc2ccccc12)C(=O)O` [Compound 28], 1.94 µM; for `O=C(NCc1ccccc1)NC[C@H](NC(=O)[C@@H]1CCCN1S(=O)(=O)c1ccc2ccccc2c1)C(=O)O` [Compound 29], 0.9 µM.

In the case of `O=C(Cc1ccccc1)Nc1ccc(S(=O)(=O)N2CCC[C@H]2C(=O)N[C@@H](CNC(=O)NCc2ccccc2)C(=O)O)cc1` [Compound 32, 3-(3-Benzyl-ureido)-2-{[1-(4-phenylacetylamino-benzenesulfonyl)-pyrrolidine-2-carbonyl]-amino}-propionic acid], the IC50 amounted to 0.236 µM.

For `O=C(NCc1ccccc1)NC[C@H](NC(=O)[C@@H]1CCCN1S(=O)(=O)c1ccc(NC(=O)Nc2ccccc2)cc1)C(=O)O` [Compound 33, 3-(3-Benzyl-ureido)-2-({1-[4-(3-phenyl-ureido)-benzenesulfonyl]-pyrrolidine-2-carbonyl}-amino)-propionic acid], the IC50 worked out at 0.151 µM. Same read-out and setting: for `O=C(NCc1ccccc1)NC[C@H](NC(=O)[C@@H]1CCCN1S(=O)(=O)c1ccc2ccccc2c1)C(=O)O` [Compound 34, 3-(3-Benzyl-ureido)-2-{[1-(naphthalene-2-sulfonyl)-pyrrolidine-2-carbonyl]-amino}-propionic acid] the value was 0.05 µM. On the same count and under the same terms, the figure for `O=C(NCc1ccccc1Cl)NC[C@H](NC(=O)[C@@H]1CCCN1S(=O)(=O)c1ccccc1)C(=O)O` [Compound 35, 2-[(1-Benzenesulfonyl-pyrrolidine-2-carbonyl)-amino]-3-[3-(2-chloro-benzyl)-ureido]-propionic acid] is 0.107 µM; for `O=C(NC[C@H](NC(=O)[C@@H]1CCCN1S(=O)(=O)c1ccccc1)C(=O)O)Nc1ccccc1` [Compound 36, 2-[(1-Benzenesulfonyl-pyrrolidine-2-carbonyl)-amino]-3-(3-phenyl-ureido)-propionic acid] it is 0.296 µM. Same read-out and setting: for `O=C(CCc1ccccc1)NC[C@H](NC(=O)[C@@H]1CCCN1S(=O)(=O)c1ccccc1)C(=O)O` [Compound 37, 2-[(1-Benzenesulfonyl-pyrrolidine-2-carbonyl)-amino]-3-(3-phenyl-propionylamino)-propionic acid] the value was 0.367 µM.

In the case of `O=C(NC[C@H](NC(=O)[C@@H]1CCCN1S(=O)(=O)c1ccccc1)C(=O)O)c1ccccc1` [Compound 38, 2-[(1-Benzenesulfonyl-pyrrolidine-2-carbonyl)-amino]-3-benzoylamino-propionic acid], the IC50 turned out to be 0.66 µM. Consider `O=C(NC[C@H](NC(=O)[C@@H]1CCCN1S(=O)(=O)c1ccccc1)C(=O)O)OCc1ccccc1` [Compound 39, 2-[(1-Benzenesulfonyl-pyrrolidine-2-carbonyl)-amino]-3-benzyloxycarbonylamino-propionic acid], for which the IC50 stood at 0.185 µM. Consider `COc1ccccc1CNC(=O)NC[C@H](NC(=O)[C@@H]1CCCN1S(=O)(=O)c1ccccc1)C(=O)O` [Compound 40, 2-[(1-Benzenesulfonyl-pyrrolidine-2-carbonyl)-amino]-3-[3-(2-methoxy-benzyl)-ureido]-propionic acid], for which the IC50 worked out at 0.467 µM. The same measure, in the same setting: for `COc1cccc(CNC(=O)NC[C@H](NC(=O)[C@@H]2CCCN2S(=O)(=O)c2ccccc2)C(=O)O)c1` [Compound 41, 2-[(1-Benzenesulfonyl-pyrrolidine-2-carbonyl)-amino]-3-[3-(3-methoxy-benzyl)-ureido]-propionic acid] the value was 0.16 µM; for `CCCNC(=O)NC[C@H](NC(=O)[C@@H]1CCCN1S(=O)(=O)c1ccccc1)C(=O)O` [Compound 42, 2-[(1-Benzenesulfonyl-pyrrolidine-2-carbonyl)-amino]-3-{3-propyl-ureido)-propionic acid], 0.367 µM.

In the case of `O=C(NCc1ccccc1)NC[C@H](NC(=O)[C@@H]1CCCN1S(=O)(=O)c1cc(F)cc(F)c1)C(=O)O` [Compound 43, 3-(3-Benzyl-ureido)-2-{[1-(3,5-difluoro-benzenesulfonyl)-pyrrolidine-2-carbonyl]-amino}-propionic acid], the IC50 stood at 0.035 µM. On the same count and under the same terms, for `CS(=O)(=O)c1ccc(S(=O)(=O)N2CCC[C@H]2C(=O)N[C@@H](CNC(=O)NCc2ccccc2)C(=O)O)cc1` [Compound 44, 3-(3-Benzyl-ureido)-2-{[1-(4-methanesulfonyl-benzenesulfonyl)-pyrrolidine-2-carbonyl]-amino}-propionic acid] the value was 0.07 µM.

With `CC(C)(C)NC(=O)NC[C@H](NC(=O)[C@@H]1CCCN1S(=O)(=O)c1ccccc1)C(=O)O` [Compound 45, 2-[(1-Benzenesulfonyl-pyrrolidine-2-carbonyl)-amino]-3-(3-tert-butyl-ureido)-propionic acid], the IC50 came out at 0.185 µM.

For the compound `O=C(NCc1ccccc1)NC[C@H](NC(=O)[C@@H]1C[C@@H](OCc2ccccc2)CN1S(=O)(=O)c1ccccc1)C(=O)O` [Compound 46, 2-[(1-Benzenesulfonyl-4-benzyloxy-pyrrolidine-2-carbonyl)-amino]-3-(3-benzyl-ureido)-propionic acid], the IC50 turned out to be 0.24 µM. Still for that read-out and setting: the figure for `O=C(NCc1ccccc1)NC[C@H](NC(=O)[C@@H]1C[C@@H](O)CN1S(=O)(=O)c1ccccc1)C(=O)O` [Compound 47, 2-[(1-Benzenesulfonyl-4-hydroxy-pyrrolidine-2-carbonyl)-amino]-3-(3-benzyl-ureido)-propionic acid] is 0.034 µM. For `O=C(NCc1ccccc1)NC[C@H](NC(=O)[C@@H]1CCCN1S(=O)(=O)c1cc(C(F)(F)F)cc(C(F)(F)F)c1)C(=O)O` [Compound 49, 3-(3-Benzyl-ureido)-2-{[1-(3,5-bis-trifluoromethyl-benzenesulfonyl)-pyrrolidine-2-carbonyl]-amino}-propionic acid], the IC50 was 0.039 µM. `O=C(NCc1ccccc1)NC[C@H](NC(=O)C1CCCCN1S(=O)(=O)c1ccccc1)C(=O)O` (stereo partly shown) [Compound 51, 2-[(1-Benzenesulfonyl-piperidine-2-carbonyl)-amino]-3-(3-benzyl-ureido)-propionic acid]: the IC50 was 0.056 µM.

The target in a further assay is T2, α1β1 (Homo sapiens, UniProt P05556+P56199).
T2 construct: Marcinkiewicz (Temple University, Philadelphia, Pa.); host or cells: K562
T2 sequence (P56199 29-1179): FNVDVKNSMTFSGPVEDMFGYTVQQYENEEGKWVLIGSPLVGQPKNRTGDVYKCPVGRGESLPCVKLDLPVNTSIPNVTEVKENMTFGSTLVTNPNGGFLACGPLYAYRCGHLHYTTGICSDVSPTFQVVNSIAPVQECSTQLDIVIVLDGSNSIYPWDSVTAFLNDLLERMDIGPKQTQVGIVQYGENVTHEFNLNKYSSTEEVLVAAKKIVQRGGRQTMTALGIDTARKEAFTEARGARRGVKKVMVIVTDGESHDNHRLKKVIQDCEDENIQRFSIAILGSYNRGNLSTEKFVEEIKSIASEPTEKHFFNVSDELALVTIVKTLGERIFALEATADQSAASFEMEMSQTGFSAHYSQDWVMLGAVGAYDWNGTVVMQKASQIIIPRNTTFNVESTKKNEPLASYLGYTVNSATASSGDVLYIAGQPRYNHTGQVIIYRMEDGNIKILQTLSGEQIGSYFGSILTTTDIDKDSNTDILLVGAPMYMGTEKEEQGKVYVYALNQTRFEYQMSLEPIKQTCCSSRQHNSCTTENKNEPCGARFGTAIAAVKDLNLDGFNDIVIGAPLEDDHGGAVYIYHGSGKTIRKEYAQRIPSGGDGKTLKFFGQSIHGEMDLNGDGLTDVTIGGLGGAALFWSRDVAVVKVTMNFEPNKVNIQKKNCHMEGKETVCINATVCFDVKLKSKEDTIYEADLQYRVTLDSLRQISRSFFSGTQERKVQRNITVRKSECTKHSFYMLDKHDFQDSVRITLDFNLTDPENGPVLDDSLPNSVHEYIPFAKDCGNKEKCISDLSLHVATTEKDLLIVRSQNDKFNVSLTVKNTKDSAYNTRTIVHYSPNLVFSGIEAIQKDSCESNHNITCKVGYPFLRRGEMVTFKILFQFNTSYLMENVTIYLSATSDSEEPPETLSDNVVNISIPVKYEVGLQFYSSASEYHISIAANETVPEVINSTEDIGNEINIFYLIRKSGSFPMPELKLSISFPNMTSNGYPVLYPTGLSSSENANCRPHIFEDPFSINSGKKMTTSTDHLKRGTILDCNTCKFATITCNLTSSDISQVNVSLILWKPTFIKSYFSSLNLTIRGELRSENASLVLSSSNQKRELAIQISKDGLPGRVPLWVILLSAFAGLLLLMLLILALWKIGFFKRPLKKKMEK
T2 sequence (P05556 21-798): as the sequence (P05556 21-798) above
The assay can be described thus: Cell adhesion assay to assess specificity: α1-transfected K562 cells on collagen IV. Format: cell-based. The settings on record: read-out: % inhibition at 3 μM, α1β1. The protocol:
(§1) The ligands (3 μg/ml of collagen IV for […] or 3 μg/ml of collagen I for α2β1) for the test designed to assess the specificity of representative embodiments of the instant compounds for the α2β1 integrin were immobilized on 96-well flat microtiter plates (100 μl for each well) in PBS buffer solution overnight at 4° C. In the case of VCAM (3 μg/ml, for α4β1) and fibronectin (10 μg/ml, for α5β1), 20 mM acetic acid was used instead of PBS buffer solution. As those skilled in the art will recognize, VCAM is a known endothelial ligand for α4β1/VLA-4, and fibronectin is a known ligand for […]. In the case of α1β1 and α2β1, blocking was performed with 1% BSA in HBSS buffer solution containing Mg^2+ (but without Ca^2+) for 1 hour. In the case of α4β1 and α5β1, 1% BSA in HyQ HBSS buffer solution containing Ca^2+ and Mg^2+ was used. […] After centrifugation and washing with buffer solution containing 1% BSA, cells were re-suspended in same buffer solution (1×10^6 cells/ml) and incubated in the presence of a different concentration of inhibitors at room temperature for 15 minutes. Cells were added to the wells (100 μl/well) and incubated at 37° C. for 30 minutes. Unbound cells were washed out and bound cells were lysed by the addition of 0.5% Triton X-100.
(§2) The K562 cells expressing α5β1 integrin, Jurkat cells expressing α4β1, and K562 cells transfected with α1 and α2 integrins were provided by Dr. C. Marcinkiewicz (Temple University, Philadelphia, Pa.).
(§3) Plates were read using a Cytofluor 2350 fluorescence plate reader (Millipore, Bedford, Mass.) with a 485 nm (excitation) and 530 nm (emission).
In the case of `O=C(NCc1ccccc1)NC[C@H](NC(=O)[C@@H]1CCCN1S(=O)(=O)c1ccc2ccccc2c1)C(=O)O` [Compound 29], the inhibition at 3 µM is 30%.

For the next assay, the target named is T3, α2β1 (Homo sapiens, UniProt P05556+P17301).
T3 construct: Marcinkiewicz (Temple University, Philadelphia, Pa.); host or cells: K562
T3 sequence (P17301 30-1181): as the sequence (P17301 30-1181) above
T3 sequence (P05556 21-798): as the sequence (P05556 21-798) above
The assay is described as follows: Cell adhesion assay to assess specificity: α2-transfected K562 cells on collagen I. Format: cell-based.
Settings: not given
The protocol:
as §1, §2, §3
Regarding `O=C(NCc1ccccc1)NC[C@H](NC(=O)[C@@H]1CCCN1S(=O)(=O)c1ccc2ccccc2c1)C(=O)O` [Compound 29], the IC50 was found to be 177 nM.

The next assay addresses T4, α4β1 (Homo sapiens, UniProt P05556+P13612).
T4 construct: Jurkat cells expressing α4β1; Marcinkiewicz (Temple University, Philadelphia, Pa.); host or cells: Jurkat
The assay is described as follows: Cell adhesion assay to assess specificity: Jurkat cells on VCAM. Format: cell-based.
Settings: not given
The protocol:
as §1, §2, §3
For `O=C(NCc1ccccc1)NC[C@H](NC(=O)[C@@H]1CCCN1S(=O)(=O)c1ccc2ccccc2c1)C(=O)O` [Compound 29], half-maximal inhibition (IC50) was put at 4330 nM.
